Source: the supplement of paper PMC10307832

Compound: CC(C)N(CCCNC(=O)Nc1ccc(C(C)(C)C)cc1)C[C@H]1O[C@@H](n2ccc3c(N)ncnc32)[C@H](O)[C@@H]1O + C[C@]1(O)C[C@@H](c2nc(-c3ccc4ccc(-c5ccccc5)nc4c3)c3c(N)nccn32)C1 [Linsitinib] (partner 1 µM)
Assay: relative viability (nuclei count vs DMSO), 5 days (fraction); higher = more cells survive
Conditions: first compound 0.08 µM
Summary of the method: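 Nuclei were stained with Hoechst during a one-step fixation (final 0.05% Triton X-100, 1% formaldehyde, 1 ug/ml Hoechst) carried out 5 days after dosing, then counted on 4× images. The cells, lung cancer lines in 1536-well plates, had been dosed by pin tool the day after seeding with one drug alone or a fixed anchor-drug dose plus five library-drug doses (not always all listed) in √10 steps. Relative viability is the nuclei count in treated wells divided by that in vehicle wells, and each value is the median of duplicate plates.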

Cell Line | relative viability
PC-14 | 0.962
EBC-1 | 0.656
NCI-H1703 | 0.67
NCI-H2009 | 1.18
NCI-H1993 | 0.806
NCI-H520 | 0.943
PC-3 [JPC-3] | 0.97
LCLC-103H | 1.04
NCI-H647 | 1.12
NCI-H2228 | 0.817
EMC-BAC-2 | 0.764
NCI-H2087 | 1.06
Calu-6 | 1
HCC-366 | 0.597
NCI-H1666 | 0.794
NCI-H650 | 0.757
LK-2 | 0.678

Cell Line | relative viability
NCI-H2126 | 0.713
SK-MES-1 | 1.06
H3255 | 0.804
COR-L23 | 0.837
COR-L 105 | 0.805
IA-LM | 0.318
LOU-NH91 | 0.944
NCI-H3122 | 1.03
HOP-62 | 0.859
HCC-44 | 0.647
A549 | 0.561
LU99A | 0.516
BEN | 0.819
HCC-78 | 0.576
NCI-H1299 | 0.876
NCI-H1563 | 1.16
ABC-1 | 0.978

Same assay, conditions: first compound 0.253 µM

Cell Line | relative viability
PC-14 | 0.969
EBC-1 | 0.74
NCI-H1703 | 0.515
NCI-H2009 | 1.21
NCI-H1993 | 0.761
NCI-H520 | 0.87
PC-3 [JPC-3] | 0.94
LCLC-103H | 0.887
EMC-BAC-2 | 0.835
NCI-H2087 | 1.14
Calu-6 | 0.933
HCC-366 | 0.581
NCI-H1666 | 0.925
NCI-H650 | 0.732
LK-2 | 0.405
NCI-H2126 | 0.674

Cell Line | relative viability
SK-MES-1 | 1.17
H3255 | 0.958
COR-L23 | 0.934
COR-L 105 | 1.18
IA-LM | 0.559
LOU-NH91 | 0.873
NCI-H3122 | 0.989
HOP-62 | 0.924
HCC-44 | 0.68
A549 | 0.554
LU99A | 0.405
BEN | 0.849
HCC-78 | 0.437
NCI-H1299 | 1.02
NCI-H1563 | 1.14
ABC-1 | 0.95

Same assay, conditions: first compound 0.8 µM

Cell Line | relative viability
PC-14 | 0.979
EBC-1 | 0.598
NCI-H2009 | 1.18
NCI-H1993 | 0.738
NCI-H520 | 0.882
PC-3 [JPC-3] | 0.876
LCLC-103H | 0.959
NCI-H647 | 1.17
NCI-H2228 | 0.665
EMC-BAC-2 | 0.794
NCI-H2087 | 0.998
Calu-6 | 0.871
HCC-366 | 0.563
NCI-H1666 | 0.859
NCI-H650 | 1.04
LK-2 | 0.496

Cell Line | relative viability
NCI-H2126 | 0.743
SK-MES-1 | 1.11
H3255 | 0.947
COR-L23 | 0.916
COR-L 105 | 1.07
IA-LM | 0.413
NCI-H3122 | 0.919
HOP-62 | 0.989
HCC-44 | 0.748
A549 | 0.525
LU99A | 0.521
BEN | 0.924
HCC-78 | 0.423
NCI-H1299 | 0.97
NCI-H1563 | 1.32

Same assay, conditions: first compound 2.53 µM

Cell Line | relative viability
PC-14 | 0.908
EBC-1 | 0.885
NCI-H1703 | 0.721
NCI-H2009 | 1.13
NCI-H1993 | 0.752
NCI-H520 | 1
PC-3 [JPC-3] | 0.919
LCLC-103H | 1.04
NCI-H647 | 1.13
NCI-H2228 | 0.625
EMC-BAC-2 | 0.806
NCI-H2087 | 1.18
Calu-6 | 0.988
HCC-366 | 0.547
NCI-H1666 | 0.85
NCI-H650 | 0.791
LK-2 | 0.554

Cell Line | relative viability
NCI-H2126 | 0.749
SK-MES-1 | 1.09
H3255 | 0.994
COR-L23 | 1.04
COR-L 105 | 0.727
IA-LM | 0.443
LOU-NH91 | 0.998
NCI-H3122 | 1.01
HOP-62 | 0.896
HCC-44 | 0.666
A549 | 0.679
LU99A | 0.582
BEN | 1.01
HCC-78 | 0.51
NCI-H1299 | 0.918
NCI-H1563 | 1.27
ABC-1 | 0.709

Same assay, conditions: first compound 8 µM

Cell Line | relative viability
PC-14 | 0.857
EBC-1 | 0.727
NCI-H1703 | 0.612
NCI-H2009 | 0.958
NCI-H1993 | 0.654
NCI-H520 | 0.894
PC-3 [JPC-3] | 0.897
LCLC-103H | 0.917
NCI-H647 | 1.03
NCI-H2228 | 0.554
EMC-BAC-2 | 0.804
NCI-H2087 | 0.965
Calu-6 | 0.858
HCC-366 | 0.513
NCI-H1666 | 0.781
NCI-H650 | 0.704
LK-2 | 0.509
NCI-H2126 | 0.676
SK-MES-1 | 1.06
H3255 | 0.84
COR-L23 | 0.897
COR-L 105 | 0.896
IA-LM | 0.432
LOU-NH91 | 0.918
